Data reported in ChEMBL document CHEMBL1201862, “PubChem BioAssay data set” (2004).
Activity calls are given as the source filed them.

What was measured:
[1] = target: Transitional endoplasmic reticulum ATPase (Homo sapiens, UniProt P55072, C522A); assay: C522A mutant p97 ATPase inhibitors, dose response, counter-screen for p97 inhibitor project, biochemical, luminescence (AID 1544)
[2] = target: Sphingosine 1-phosphate receptor 2 (Homo sapiens, UniProt O95136); assay: Dose Response Cell Based Assay for Antagonists of the S1P2 Receptor. [Related pubchem assays: 856, 736 ]; assay type: functional
Chain of Sphingosine 1-phosphate receptor 2 (O95136 whole entry): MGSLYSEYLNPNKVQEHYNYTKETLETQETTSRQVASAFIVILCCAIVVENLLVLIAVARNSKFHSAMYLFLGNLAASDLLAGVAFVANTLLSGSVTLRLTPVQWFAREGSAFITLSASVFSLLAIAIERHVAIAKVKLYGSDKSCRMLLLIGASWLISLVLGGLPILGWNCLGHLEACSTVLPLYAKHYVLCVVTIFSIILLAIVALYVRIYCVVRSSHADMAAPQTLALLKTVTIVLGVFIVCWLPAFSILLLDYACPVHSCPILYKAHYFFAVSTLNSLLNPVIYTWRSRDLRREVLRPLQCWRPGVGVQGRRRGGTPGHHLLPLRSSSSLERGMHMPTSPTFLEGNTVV

[3] = target: T1, Sphingosine 1-phosphate receptor 4 (Homo sapiens, UniProt O95977); assay: Fluorescence dose response cell-based high throughput screening assay for antagonists of the Sphingosine 1-Phosphate Receptor 4 (S1P4). [Related pubchem assays: 1524 (Confirmation in triplicates.), 1510 (Primary screen.)]; assay type: functional
T1 sequence (O95977 whole entry): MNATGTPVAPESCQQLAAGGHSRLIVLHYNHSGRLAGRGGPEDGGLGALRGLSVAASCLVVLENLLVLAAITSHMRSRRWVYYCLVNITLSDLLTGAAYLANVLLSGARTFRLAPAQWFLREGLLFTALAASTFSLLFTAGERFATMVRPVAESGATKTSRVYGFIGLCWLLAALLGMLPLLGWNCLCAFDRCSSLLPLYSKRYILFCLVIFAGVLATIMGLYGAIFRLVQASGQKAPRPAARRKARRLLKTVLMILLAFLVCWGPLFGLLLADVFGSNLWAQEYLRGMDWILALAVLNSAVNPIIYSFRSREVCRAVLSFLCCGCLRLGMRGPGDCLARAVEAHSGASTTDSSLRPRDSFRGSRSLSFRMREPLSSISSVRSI

[4] = target: Photoreceptor-specific nuclear receptor (Homo sapiens, UniProt Q9Y5X4); assay type: functional;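 note: potency for compounds that break the NR2E3 corepressor complex and count as activators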
Chain of Photoreceptor-specific nuclear receptor (Q9Y5X4 whole entry): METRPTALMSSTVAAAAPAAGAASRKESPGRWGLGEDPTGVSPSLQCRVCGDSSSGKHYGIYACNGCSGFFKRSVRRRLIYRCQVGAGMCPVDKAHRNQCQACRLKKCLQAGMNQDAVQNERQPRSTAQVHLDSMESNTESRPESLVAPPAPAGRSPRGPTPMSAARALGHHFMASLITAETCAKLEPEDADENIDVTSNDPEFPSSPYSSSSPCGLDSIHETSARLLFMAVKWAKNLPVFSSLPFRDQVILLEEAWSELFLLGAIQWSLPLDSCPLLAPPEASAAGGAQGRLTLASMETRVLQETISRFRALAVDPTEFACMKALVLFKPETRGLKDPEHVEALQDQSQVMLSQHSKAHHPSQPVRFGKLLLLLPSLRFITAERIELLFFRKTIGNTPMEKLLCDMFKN

[5] = target: Transitional endoplasmic reticulum ATPase (Homo sapiens, UniProt P55072); assay: p97 ATPase inhibitors, dose response, biochemical (AID 1534)
Chain of Transitional endoplasmic reticulum ATPase (Homo sapiens, UniProt P55072) (P55072 whole entry): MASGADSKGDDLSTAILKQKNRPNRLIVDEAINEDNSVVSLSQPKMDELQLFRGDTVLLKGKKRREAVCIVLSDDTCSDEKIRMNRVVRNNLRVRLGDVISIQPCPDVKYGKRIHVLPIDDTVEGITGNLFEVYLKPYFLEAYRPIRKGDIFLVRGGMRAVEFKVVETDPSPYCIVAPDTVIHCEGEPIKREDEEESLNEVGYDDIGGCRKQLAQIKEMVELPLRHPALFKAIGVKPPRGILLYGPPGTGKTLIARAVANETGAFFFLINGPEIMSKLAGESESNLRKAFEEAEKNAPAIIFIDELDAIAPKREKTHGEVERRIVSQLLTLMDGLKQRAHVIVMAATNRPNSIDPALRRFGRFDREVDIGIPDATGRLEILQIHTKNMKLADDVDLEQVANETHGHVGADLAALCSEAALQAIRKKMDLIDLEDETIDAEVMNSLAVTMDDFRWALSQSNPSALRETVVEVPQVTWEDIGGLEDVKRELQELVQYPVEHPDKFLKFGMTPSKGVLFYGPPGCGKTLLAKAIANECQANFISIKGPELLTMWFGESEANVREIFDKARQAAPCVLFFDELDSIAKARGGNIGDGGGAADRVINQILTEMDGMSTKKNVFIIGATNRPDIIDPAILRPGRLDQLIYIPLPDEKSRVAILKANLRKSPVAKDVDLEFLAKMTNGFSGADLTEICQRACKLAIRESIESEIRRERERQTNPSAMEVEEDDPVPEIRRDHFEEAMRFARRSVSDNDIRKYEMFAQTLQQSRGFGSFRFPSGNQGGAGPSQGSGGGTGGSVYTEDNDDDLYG

Hexokinase-1 = target: T2, Hexokinase-1 (Homo sapiens, UniProt P19367); assay: hexokinase 1 activators, dose response, selectivity assay for HKDC1 activator project, biochemical (AID 504762); assay type: functional
T2 sequence (P19367 whole entry): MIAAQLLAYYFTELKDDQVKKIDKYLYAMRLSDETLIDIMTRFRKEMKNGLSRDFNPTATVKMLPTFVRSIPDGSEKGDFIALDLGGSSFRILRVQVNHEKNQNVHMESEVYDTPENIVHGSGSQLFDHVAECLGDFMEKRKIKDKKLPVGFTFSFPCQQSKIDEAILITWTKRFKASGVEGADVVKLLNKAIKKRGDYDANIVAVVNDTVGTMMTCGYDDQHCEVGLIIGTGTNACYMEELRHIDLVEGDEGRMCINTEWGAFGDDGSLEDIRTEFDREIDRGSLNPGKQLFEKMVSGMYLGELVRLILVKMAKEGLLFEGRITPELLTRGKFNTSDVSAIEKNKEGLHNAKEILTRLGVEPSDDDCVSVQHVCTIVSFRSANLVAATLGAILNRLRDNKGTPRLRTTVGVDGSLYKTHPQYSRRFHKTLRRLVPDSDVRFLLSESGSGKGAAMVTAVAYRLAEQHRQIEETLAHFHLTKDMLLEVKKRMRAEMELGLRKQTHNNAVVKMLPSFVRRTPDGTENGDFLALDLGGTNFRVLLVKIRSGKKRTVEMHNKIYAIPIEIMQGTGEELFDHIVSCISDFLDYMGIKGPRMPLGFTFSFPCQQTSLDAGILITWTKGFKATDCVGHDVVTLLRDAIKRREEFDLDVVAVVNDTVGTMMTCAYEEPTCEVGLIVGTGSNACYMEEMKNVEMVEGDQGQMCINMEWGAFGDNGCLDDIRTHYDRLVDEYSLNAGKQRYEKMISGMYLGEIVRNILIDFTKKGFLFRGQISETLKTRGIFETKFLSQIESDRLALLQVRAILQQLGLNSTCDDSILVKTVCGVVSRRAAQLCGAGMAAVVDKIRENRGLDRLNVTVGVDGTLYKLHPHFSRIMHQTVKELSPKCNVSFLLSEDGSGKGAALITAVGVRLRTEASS

Hexokinase HKDC1 = target: T3, Hexokinase HKDC1 (Homo sapiens, UniProt Q2TB90); assay: HKDC1 hexokinase activators, dose response, biochemical, W721R variant (AID 504730); assay type: functional
T3 sequence (Q2TB90 whole entry): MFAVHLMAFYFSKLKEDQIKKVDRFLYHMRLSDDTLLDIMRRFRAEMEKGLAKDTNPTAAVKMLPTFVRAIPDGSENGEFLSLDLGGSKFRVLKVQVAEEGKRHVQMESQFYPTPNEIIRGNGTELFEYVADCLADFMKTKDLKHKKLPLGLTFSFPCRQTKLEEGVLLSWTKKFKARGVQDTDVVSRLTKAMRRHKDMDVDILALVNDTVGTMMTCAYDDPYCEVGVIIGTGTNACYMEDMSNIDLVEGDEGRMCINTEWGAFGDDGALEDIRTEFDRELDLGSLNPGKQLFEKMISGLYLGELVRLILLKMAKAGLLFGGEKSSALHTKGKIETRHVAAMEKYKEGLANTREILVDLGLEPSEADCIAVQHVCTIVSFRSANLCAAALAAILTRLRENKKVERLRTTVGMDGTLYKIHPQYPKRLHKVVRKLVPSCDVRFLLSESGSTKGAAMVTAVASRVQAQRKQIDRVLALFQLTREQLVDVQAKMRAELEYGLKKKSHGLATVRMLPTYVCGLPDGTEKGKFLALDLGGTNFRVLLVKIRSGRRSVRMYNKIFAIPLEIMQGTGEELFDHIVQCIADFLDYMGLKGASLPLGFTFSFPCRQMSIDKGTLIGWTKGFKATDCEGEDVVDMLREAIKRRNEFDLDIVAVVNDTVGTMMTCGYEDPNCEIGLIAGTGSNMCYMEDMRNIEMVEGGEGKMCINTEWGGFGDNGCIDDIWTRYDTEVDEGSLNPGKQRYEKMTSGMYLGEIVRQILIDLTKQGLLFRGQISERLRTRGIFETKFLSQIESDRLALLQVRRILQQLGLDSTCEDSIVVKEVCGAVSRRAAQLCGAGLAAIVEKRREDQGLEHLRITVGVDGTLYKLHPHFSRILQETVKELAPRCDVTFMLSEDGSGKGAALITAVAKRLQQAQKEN

cells = assay type: functional, cell-based
[6] = target: Serine/threonine-protein phosphatase (Candida dubliniensis (strain CD36 / CBS 7987 / NCPF 3949 / NRRLY-17841) (Yeast), UniProt B9W6M3); assay: calcineurin pathway inhibitors in yeast reporter, dose response, S. cerevisiae, CDRE-lacZ, luminescence, secondary (AID 2388); assay type: functional, cell-based;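 note: yeast reporter cells carrying a calcineurin-responsive lacZ construct stimulated with calcium chloride; luminescent beta-galactosidase reporter signal in whole cells rather than isolated phosphatase activity; potency for inhibition where a drop in reporter signal means calcineurin blockade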
Chain of Serine/threonine-protein phosphatase (B9W6M3 whole entry): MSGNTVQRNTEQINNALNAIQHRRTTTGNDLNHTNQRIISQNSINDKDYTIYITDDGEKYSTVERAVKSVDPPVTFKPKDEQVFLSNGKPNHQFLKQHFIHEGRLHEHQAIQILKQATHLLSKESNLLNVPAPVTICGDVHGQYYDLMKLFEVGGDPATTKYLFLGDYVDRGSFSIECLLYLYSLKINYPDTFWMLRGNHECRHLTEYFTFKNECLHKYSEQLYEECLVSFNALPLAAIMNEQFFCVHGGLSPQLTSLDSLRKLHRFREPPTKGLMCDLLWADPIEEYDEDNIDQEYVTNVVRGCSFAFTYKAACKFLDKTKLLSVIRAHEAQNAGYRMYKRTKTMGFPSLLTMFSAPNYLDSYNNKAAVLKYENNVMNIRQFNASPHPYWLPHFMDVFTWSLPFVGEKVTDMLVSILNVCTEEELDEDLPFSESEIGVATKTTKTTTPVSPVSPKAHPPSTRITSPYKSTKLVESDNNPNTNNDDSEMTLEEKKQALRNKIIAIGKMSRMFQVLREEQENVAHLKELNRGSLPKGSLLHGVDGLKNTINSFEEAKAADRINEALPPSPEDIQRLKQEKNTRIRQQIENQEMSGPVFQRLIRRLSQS

[7] = cytotoxicity toward DRD oncogenic fibroblasts, dose response, cell-based, non-viral oncogenic, luminescence (AID 1934); assay type: functional; conditions: Homo sapiens
BJ = assay: cytotoxicity toward BJ-TERT fibroblasts, dose response, cell-based, RAS-independent, luminescence (AID 1933); assay type: functional; conditions: Homo sapiens
[8] = THP-1 cell cytotoxicity, dose response, cytotoxicity control for non-replicating M. tuberculosis project (AID 489025); assay type: functional

Chain of Transitional endoplasmic reticulum ATPase (Homo sapiens, UniProt P55072, C522A) (P55072 2-806 C522A limits assumed): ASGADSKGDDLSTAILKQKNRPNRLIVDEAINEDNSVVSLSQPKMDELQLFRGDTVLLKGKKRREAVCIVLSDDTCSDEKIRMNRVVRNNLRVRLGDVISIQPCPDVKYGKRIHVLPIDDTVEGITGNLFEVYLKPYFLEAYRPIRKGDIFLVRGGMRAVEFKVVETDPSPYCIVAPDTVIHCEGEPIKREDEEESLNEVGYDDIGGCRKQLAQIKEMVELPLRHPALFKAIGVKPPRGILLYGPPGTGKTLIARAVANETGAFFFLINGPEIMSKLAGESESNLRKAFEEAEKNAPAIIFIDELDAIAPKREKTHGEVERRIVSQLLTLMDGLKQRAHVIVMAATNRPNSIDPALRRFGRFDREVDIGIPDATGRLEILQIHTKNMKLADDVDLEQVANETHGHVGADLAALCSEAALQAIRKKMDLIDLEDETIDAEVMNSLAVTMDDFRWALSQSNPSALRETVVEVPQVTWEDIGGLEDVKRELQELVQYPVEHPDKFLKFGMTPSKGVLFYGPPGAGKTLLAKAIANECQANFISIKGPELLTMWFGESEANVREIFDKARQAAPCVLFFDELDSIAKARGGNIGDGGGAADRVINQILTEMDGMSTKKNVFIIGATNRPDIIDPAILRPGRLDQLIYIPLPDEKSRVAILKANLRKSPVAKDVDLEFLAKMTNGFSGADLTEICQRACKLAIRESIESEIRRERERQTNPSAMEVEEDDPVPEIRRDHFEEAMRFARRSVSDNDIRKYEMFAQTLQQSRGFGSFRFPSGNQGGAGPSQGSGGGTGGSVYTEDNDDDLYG

Cn1nc(-c2ccc(Cl)cc2)nc2c(=O)n(C)c(=O)nc1-2
IC50 [1]: > 50 µM (not active)
IC50 [2]: 0.996 µM (active)
IC50 [3]: 0.396 µM (active)
IC50 [4]: > 39.8 µM (not active)
IC50 [5]: > 50 µM (not active)

SC1=Nc2ccccc2C1
EC50 (Hexokinase-1): 19.3 µM (active)
EC50 (Hexokinase HKDC1): 18 µM (active)

COc1ccc(C(NC(=O)C(C)C)c2ccc3cccnc3c2O)cc1 (configuration not stated)
EC50 (cells): 5.77 µM (active)
EC50 [6]: > 180 µM (inactive)

O=C(Cc1ccc([N+](=O)[O-])cc1)N/N=C/c1ccc([N+](=O)[O-])o1
EC50 [7]: 38.3 µM (active)
EC50 (BJ): > 150 µM (not active)
CC50 [8]: 6.26 µM (active)
